Assay [1] deals with SH-SY5Y cells. The assay can be described thus: Staurosporine. It counts as cell-based. To be noted: 0.5 μM STS, n = 3; Figure S4F.
For assay [2], the target named is T1, PAAN/MIF nuclease (Homo sapiens, UniProt P14174).
T1 sequence (P14174 1-115): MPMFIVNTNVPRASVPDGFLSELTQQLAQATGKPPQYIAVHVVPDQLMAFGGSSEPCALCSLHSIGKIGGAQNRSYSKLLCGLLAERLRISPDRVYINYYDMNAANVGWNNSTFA
The assay can be described thus: In vitro PAAN/MIF nuclease assay. To be noted: for inhibition of PAAN/MIF nuclease activity: PS30 substrate, indicated doses, n = 4, Figure 4H; for inhibition of the nuclease activity of PAAN/MIF by MIF tautomerase inhibitors: 10 μM p-425, 50 μM ISO-1, 10 μM AV411, n = 5, Figure 4I. It counts as biochemical.

Assay [3] has as its system SH-SY5Y cells. Kind of assay: MNNG-induced parthanatic cell death, Alamar blue viability. It counts as cell-based. To be noted: for inhibition of MNNG-induced parthanatic cell death: 0.5 or 1 μM, 50 μM MNNG 15 min, n = 4, Figure S5I; for inhibition of parthanatic cell death by MIF tautomerase inhibitors: 10 μM p-425, 50 μM ISO-1, 10 μM AV411, 50 μM MNNG 15 min, n = 5, Figure 4J. In general terms: Resazurin is reduced to fluorescent resorufin, in cell work by metabolically active cells.

Assay [4] deals with HT 22 cells. Kind of assay: TNF-α and Z-VAD-induced necroptosis, Alamar blue. It counts as cell-based. To be noted: 1 ng/mL TNF-α with 50 μM z-VAD, n = 3; Figure S4G.
Assay [5] deals with human cortical neurons. The assay can be described thus: Human α-syn PFF-induced cell death, Hoechst/PI staining. To be noted: 0.5 or 1 μM, pre-incubated 1 h, human α-syn PFF 14 days, n = 4; Figure 3G. It counts as cell-based.
Assay [6] has as its system PC-3 prostate cancer cells. Kind of assay: Tumor cell viability alone or with alantolactone. It counts as cell-based. To be noted: 0.5–8 μM combined with 10 μM ATL, 72 h, n = 3; Figure S5D.
Assay [7] relates to cortical neurons. Kind of assay: Nuclear translocation of AIF and PAAN/MIF after α-syn PFF. It counts as cell-based, mouse. Conditions: n = 3.
The test system of assay [8] is primary cortical neurons. The assay can be described thus: α-syn PFF-induced PARP activation. It counts as cell-based, mouse. To be noted: AP5 50 μM or NBQX 10 μM pre-incubated 1 h, α-syn PFF 3 days, n = 3; Figure S3A.

Peptide text beside a SMILES is read from it. * marks the point of attachment. Cbz = O=C(OCc1ccccc1)*; CH2F = FC*

As to `COC(=O)C[C@H](NC(=O)[C@H](C)NC(=O)[C@@H](NC(=O)OCc1ccccc1)C(C)C)C(=O)CF` [Z-VAD] (Cbz-Val-Ala-Asp(OMe)-CH2F), the “inhibition of staurosporine (STS)-induced apoptotic cell death” value in assay [1] is listed as “prevented”.

As for `C=CC[C@@H]1/C=C(\C)C[C@H](C)C[C@H](OC)[C@H]2O[C@@](O)(C(=O)C(=O)N3CCCC[C@H]3C(=O)O[C@H](/C(C)=C/[C@@H]3CC[C@@H](O)[C@H](OC)C3)[C@H](C)[C@@H](O)CC1=O)[C@H](C)C[C@@H]2OC` [FK506], in assay [2], the “inhibition of PAAN/MIF nuclease activity” value is “failed to inhibit”. Besides, the “inhibition of MNNG-induced parthanatic cell death” value in assay [3] is recorded as “failed to inhibit”.

As for `C[C@]1(c2nc3c(C(N)=O)cccc3[nH]2)CCCN1` [ABT-888], the “inhibition of staurosporine (STS)-induced apoptotic cell death” value in assay [1] is on record as “did not inhibit”. In assay [4], the “prevention of TNF-α and Z-VAD-induced necroptosis” value is on record as “not prevented”. In addition, the “protection against cell death” value in assay [5] is recorded as “protected against cell death”. Further, the “tumor toxicity induced by alantolactone (ATL)” value in assay [6] is reported as “enhancement of tumor toxicity”. Besides, the “α-syn PFF-induced nuclear translocation of PAAN/MIF and AIF” value in assay [7] (ABT-888 1 μM, Figure 2A) was “attenuated”.

Turning to `NC(CCCP(=O)(O)O)C(=O)O` (centres unmarked) [AP5], in assay [7] (AP5 50 μM or NBQX 10 μM pretreatment, Figure S3B), the “nuclear translocation of AIF and MIF” value is “attenuated”. The “α-syn PFF-induced PARP activation” value in assay [8] was “inhibited”.

Regarding `COC(=O)CC1CC(c2ccc(O)cc2)=NO1` (centres unmarked) [ISO-1], the “inhibition of the nuclease activity of PAAN/MIF by MIF tautomerase inhibitors” value in assay [2] is reported as “failed to inhibit”. Moreover, the “inhibition of parthanatic cell death by MIF tautomerase inhibitors” value in assay [3] is on record as “failed to inhibit”.

As to `CN1C(=O)C(Cc2c[nH]c3ccccc23)NC1=S` (centres unmarked) [Nec-1], the “prevention of TNF-α and Z-VAD-induced necroptosis” value in assay [4] is on record as “prevented necroptosis”.

For `CC(C)C(=O)c1c(C(C)C)nn2ccccc12` [Ibudilast], the “inhibition of the nuclease activity of PAAN/MIF by MIF tautomerase inhibitors” value in assay [2] is on record as “failed to inhibit”. Moreover, in assay [3], the “inhibition of parthanatic cell death by MIF tautomerase inhibitors” value is “failed to inhibit”.

Take `CO[C@H]1C[C@@H]2CC[C@@H](C)[C@@](O)(O2)C(=O)C(=O)N2CCCC[C@H]2C(=O)O[C@H]([C@H](C)C[C@@H]2CC[C@@H](O)[C@H](OC)C2)CC(=O)[C@H](C)/C=C(\C)[C@@H](O)[C@@H](OC)C(=O)[C@H](C)C[C@H](C)/C=C/C=C/C=C/1C` [rapamycin]: in assay [2], the “inhibition of PAAN/MIF nuclease activity” value is on record as “failed to inhibit”. Further, the “inhibition of MNNG-induced parthanatic cell death” value in assay [3] was “failed to inhibit”.

Source of the values: paper PMC9149120 (Cell, 2022).
